Experimental data: patent publication US20250025488A1, “NUCLEIC ACIDS FOR INHIBITING EXPRESSION OF TMPRSS6 AND IRON CHELATORS” (SILENCE THERAPEUTICS GMBH, priority 2018, published 2025)
pIC50: −log10 of the molar value. Oligonucleotides are written 5' to 3', each unit as a sugar letter and its base; * is a phosphorothioate linkage, no mark a phosphodiester; rarer units and linkages stand in square brackets, end groups in braces. Plain capitals give the bases only. m = 2'-O-methyl; f = 2'-fluoro

Key:
[1] = biological target: T1, Asialoglycoprotein receptor (ASGP-R) (Homo sapiens, UniProt P07306+P07307); conditions: higher affinity; cited from earlier work
T1 sequence (P07306 1-291): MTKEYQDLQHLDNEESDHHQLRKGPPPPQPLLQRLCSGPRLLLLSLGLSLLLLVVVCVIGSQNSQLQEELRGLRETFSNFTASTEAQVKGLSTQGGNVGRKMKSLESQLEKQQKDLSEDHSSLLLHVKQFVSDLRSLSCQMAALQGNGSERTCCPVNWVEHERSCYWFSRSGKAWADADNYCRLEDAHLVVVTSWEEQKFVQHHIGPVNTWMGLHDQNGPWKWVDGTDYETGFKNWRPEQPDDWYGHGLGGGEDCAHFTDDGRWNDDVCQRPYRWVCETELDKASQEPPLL
T1 sequence (P07307 1-311): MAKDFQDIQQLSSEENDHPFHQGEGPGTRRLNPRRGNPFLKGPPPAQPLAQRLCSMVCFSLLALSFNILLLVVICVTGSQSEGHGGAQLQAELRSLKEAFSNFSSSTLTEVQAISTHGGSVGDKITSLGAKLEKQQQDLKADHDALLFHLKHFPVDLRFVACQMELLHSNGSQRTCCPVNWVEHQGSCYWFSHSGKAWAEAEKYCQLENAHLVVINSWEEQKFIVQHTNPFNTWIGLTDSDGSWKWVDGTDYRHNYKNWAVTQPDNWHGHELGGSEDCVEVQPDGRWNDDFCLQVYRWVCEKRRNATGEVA

[2] = tested on: TMPRSS6 mRNA; assay: Dose response of TMPRSS6 nucleic acids for inhibition of TMPRSS6 expression in human Hep3B cells; assay type: cell-based; conditions: 30-0.003 nM nucleic acid (Luciferase 30 and 10 nM) + 1 μg/ml AtuFECT, two days, normalized to PTEN
Experimental: Cells were plated at a cell density of 150,000 cells per 6 well dish. The following day cells were transfected with 1 μg/ml AtuFECT (50:50 formulation of cationic lipid Atufect01 and fusogenic lipid DPhyPE) and different amounts of TMPRSS6 nucleic acids (30; 10; 3; 1; 0.3; 0.1, 0.003 nM, respectively) as depicted by the X-axis of the graph in FIG. 2. For non targeting control samples, cells were transfected with 30 and 10 nM nucleic acid for Luciferase. Two days after the transfection cells were lysed and mRNA levels were determined by q-RT-PCR. TMPRSS6 mRNA levels were normalized to the expression levels of the house keeping gene PTEN. […] Sequences of RNAi molecules are depicted in Table 1.

[3] = tested on: TMPRSS6 mRNA; assay: Dose-response of siRNAs against TMPRSS6 in Hep3B cells; assay type: cell-based, human; conditions: siRNA 100 nM-0.03 nM + 1 μg/ml AtuFECT, two days after transfection, TMPRSS6 mRNA normalized to ApoB, from dose-response curves FIG. 35; for Max inhibition: relative to 100 nM Luciferase-control siRNA
Experimental: 8000 cells per well were plated in 96-well plates. The following day cells were transfected with siRNA in indicated concentrations (100 nM-0.03 nM) and 1 μg/ml AtuFECT. Two days after transfection cells were lysed and TMPRSS6 mRNA levels were determined by q-RT-PCR. TMPRSS6 mRNA levels were normalized to expression levels of the house keeping gene ApoB. Average inhibition and standard deviation of triplicate values relative to cells treated with 100 nM of a non-targeting Luciferase-control siRNA are shown in FIG. 35.

[4] = tested on: TMPRSS6 mRNA; assay: Reduction of TMPRSS6 mRNA expression by different siRNAs in Hep3B cells (20 nM, 96-well); assay type: cell-based, human; conditions: 20 nM siRNA + 1 μg/ml AtuFECT, two days after transfection, TMPRSS6 mRNA normalized to ApoB, relative to untreated cells
Experimental: 8000 cells per well were plated in 96-well plates. The following day cells were transfected with 20 nM siRNA and 1 μg/ml AtuFECT. Two days after transfection cells were lysed and TMPRSS6 mRNA levels were determined by q-RT-PCR. TMPRSS6 mRNA levels were normalized to expression levels of the house keeping gene ApoB. An siRNAs against Luciferase was used as non targeting control.

| Molecule | Affinity of ASGP-R for GalNAc relative to D-Gal [1] [fold] | TMPRSS6 mRNA expression [2] | pIC50 [3] | Max inhibition [3] [%] | kd at 20 nM as shown in FIG. 34 [4] [%] |
| --- | --- | --- | --- | --- | --- |
| CC(=O)N[C@H]1C(O)O[C@H](CO)[C@H](O)[C@@H]1O (stereo partly drawn) [N-Acetyl-D-Galactosylamine (GalNAc), 2-(Acetylamino)-2-deoxy-D-galactopyranose] | 50 | – | – | – | – |
| Luciferase nucleic acid: non targeting control nucleic acid for Luciferase, SEQ ID NO 31/32 (chain 1 UCGAAGUAUUCCGCGUACG; chain 2 CGUACGCGGAAUACUUCGA; listed as RNA, chemistry not given here) [reference compound] | – | did not affect TMPRSS6 mRNA levels | – | – | – |
| TMPRSS6-hcm9: siRNA, SEQ ID NO 17/18, alternating 2′OMe/2′F; TMP01 = strands TMPJH01A/TMPJH01B, same chemistry (chain 1 AACCAGAAGAAGCAGGUGA; chain 2 UCACCUGCUUCUUCUGGUU; chain 1: sugars from the 5' end mfmfmfmfmfmfmfmfmfm, backbone not given here; chain 2: sugars from the 5' end fmfmfmfmfmfmfmfmfmf, backbone not given here; further chemistry not fully specified) | – | highest reduction of TMPRSS6 mRNA expression | – | – | – |
| TMPRSS6-hcmr-24: siRNA against TMPRSS6, SEQ ID NO 209/210 (chain 1 mCfUmCfAmCfCmUfUmGfAmAfGmGfAmCfAmCfCmU; chain 2 fAmGfGmUfGmUfCmCfUmUfCmAfAmGfGmUfGmAfG) | – | – | 9.10 | 73 | 70 |
| TMPRSS-SR-5: siRNA against TMPRSS6, strands hcTMP-SR5-A/B, SEQ ID NO 141/142 (chain 1 mGfGmUfGmCfUmGfAmGfGmAfCmGfCmCfCmUfGmG; chain 2 fCmCfAmGfGmGfCmGfUmCfCmUfCmAfGmCfAmCfC) | – | – | 8.08 | 100 | 85 |
| TMPRSS-SR-16: siRNA against TMPRSS6, strands hcTMP-SR16-A/B, SEQ ID NO 158 (as printed)/160 (chain 1 CUCAGCACCCCGUACUUCC; chain 2 UCAGCACCCCGUACUUCCC; listed as RNA, chemistry not fully specified) | – | – | 8.08 | 100 | 88 |
| TMPRSS-SR-21: siRNA against TMPRSS6, SEQ ID NO 167/168 (chain 1 mAfGmCfUmGfGmGfGmAfAmGfUmAfCmGfGmGfGmU; chain 2 fAmCfCmCfCmGfUmAfCmUfUmCfCmCfCmAfGmCfU) | – | – | 8.24 | 100 | 92 |
| TMPRSS-SR-27: siRNA against TMPRSS6, SEQ ID NO 177/178 (chain 1 mAfGmUfAmGfUmAfGmCfUmGfGmGfGmAfAmGfUmA; chain 2 fUmAfCmUfUmCfCmCfCmAfGmCfUmAfCmUfAmCfU) | – | – | 8.55 | 94 | 84 |
| TMPRSS-hc-16: siRNA against TMPRSS6, SEQ ID NO 195/196 (chain 1 mUfAmUfUmCfCmAfAmAfGmGfGmCfAmGfCmUfGmA; chain 2 fUmCfAmGfCmUfGmCfCmCfUmUfUmGfGmAfAmUfA) | – | – | 8.11 | 100 | 91 |
| TMPRSS-hc-17: siRNA against TMPRSS6, SEQ ID NO 197/198 (chain 1 AUCUUCUGGGCUUUGGCGG; chain 2 CCGCCAAAGCCCAGAAGAU; chain 1: sugars from the 5' end mfmfmfmfmfmfmfmfmfm, backbone not given here; chain 2: sugars from the 5' end fmfmfmfmfmfmfmfmfmf, backbone not given here) | – | – | 8.62 | 82 | 79 |
| TMPRSS-hc-18: siRNA against TMPRSS6, SEQ ID NO 199/200 (chain 1 UUUUCUCUUGGAGUCCUCA; chain 2 UGAGGACUCCAAGAGAAAA; chain 1: sugars from the 5' end mfmfmfmfmfmfmfmfmfm, backbone not given here; chain 2: sugars from the 5' end fmfmfmfmfmfmfmfmfmf, backbone not given here) | – | – | 8.34 | 95 | 90 |
| TMPRSS-hc-19: siRNA against TMPRSS6, SEQ ID NO 201/202 (chain 1 mGfAmAfUmAfGmAfCmGfGmAfGmCfUmGfGmAfGmU; chain 2 fAmCfUmCfCmAfGmCfUmCfCmGfUmCfUmAfUmUfC) | – | – | 8.21 | 100 | 89 |
| TMPRSS-hc-22: siRNA against TMPRSS6, SEQ ID NO 205/206 (chain 1 mAfGmAfUmCfCmUfGmGfGmAfGmAfAmGfUmGfGmC; chain 2 fGmCfCmAfCmUfUmCfUmCfCmCfAmGfGmAfUmCfU) | – | – | 8.09 | 99 | 73 |
| TMPRSS-hc-23: siRNA against TMPRSS6, SEQ ID NO 207/208 (chain 1 CUGUUCUGGAUCGUCCACU; chain 2 AGUGGACGAUCCAGAACAG; chain 1: sugars from the 5' end mfmfmfmfmfmfmfmfmfm, backbone not given here; chain 2: sugars from the 5' end fmfmfmfmfmfmfmfmfmf, backbone not given here) | – | – | 8.34 | 83 | 70 |
| TMPRSS-hcm-25: siRNA against TMPRSS6, SEQ ID NO 211/212 (chain 1 AGUUUCUCUCAUCCAGGCC; chain 2 GGCCUGGAUGAGAGAAACU; chain 1: sugars from the 5' end mfmfmfmfmfmfmfmfmfm, backbone not given here; chain 2: sugars from the 5' end fmfmfmfmfmfmfmfmfmf, backbone not given here) | – | – | 8.34 | 87 | 85 |
| TMPRSS-hcr-26: siRNA against TMPRSS6, SEQ ID NO 213/214 (chain 1 GUACCCUAGGAAAUACCAG; chain 2 CUGGUAUUUCCUAGGGUAC; chain 1: sugars from the 5' end mfmfmfmfmfmfmfmfmfm, backbone not given here; chain 2: sugars from the 5' end fmfmfmfmfmfmfmfmfmf, backbone not given here) | – | – | 8.46 | 100 | 98 |
